{"source": "patent US7605175B2", "about": "“Inhibitors of cyclin-dependent kinases, compositions and uses related thereto” (GPC Biotech AG, priority 2001, dated 2009)", "system": "adriamycin resistant cell line (ADR-res)", "experiment": "NCI panel (SRB), adriamycin resistant cell line", "assay_type": "cell-based", "conditions": "Homo sapiens", "excerpt": "The evaluation of compounds at the National Cancer Institute in their panel of 60 cell lines provides a wealth of information regarding efficacy in a wide range of tumor types and genetic backgrounds. Included within this panel are cell lines derived from leukemia, melanoma and cancers of the lung, colon, brain, ovary, breast, prostate and kidney. Use of this panel provides a measure of the efficacy of compounds in cells with alterations in many genes that are associated with neoplastic transformation including p53 and Her2/Neu as well as those involved in metabolism and those which confer multi-drug resistance. The data generated in these cell lines with the protocol described below can be used to evaluate the activity of compounds.\nCells were grown in RPMI-1640 10% FCS and plated in 96 well micro-titer plates at densities ranging from 5,000 to 40,000 cells/well. The plates were incubated for 24 hours at 37° C., 5% CO2 for 24 hours. […]\nThe effect of the compound on cellular viability was determined with the Sulforhodamine B (SRB) assay, which measures total protein. […] The bound stain was solubilized with 10 mM trizma base and the absorbance was read on a plate reader at […]."}
{"smiles": "CC(C)c1nn(-c2c(Cl)cccc2Cl)c2nc(Cc3ccc(O)c(CN4CCN(C(C)C)CC4)c3)[nH]c(=O)c12", "note": "[Compound C]", "values": [{"measurement": "IC50", "result": "< 0.1", "unit": "µM"}]}
